Measured values published in US20230141863A1, “Small Molecule Inhibitors Targeting the Sodium Channel Tamoxifen Receptor and Uses Thereof” (Northwestern University, priority 2021, published 2023).
Entries after “also recorded” stand apart in the source; their conditions may differ.

Tests used:
estrogen receptor (ER) = molecular target: T1, estrogen receptor (ER) (Homo sapiens, UniProt P03372); settings: reference 35; cited from earlier work
T1 sequence (P03372 1-595): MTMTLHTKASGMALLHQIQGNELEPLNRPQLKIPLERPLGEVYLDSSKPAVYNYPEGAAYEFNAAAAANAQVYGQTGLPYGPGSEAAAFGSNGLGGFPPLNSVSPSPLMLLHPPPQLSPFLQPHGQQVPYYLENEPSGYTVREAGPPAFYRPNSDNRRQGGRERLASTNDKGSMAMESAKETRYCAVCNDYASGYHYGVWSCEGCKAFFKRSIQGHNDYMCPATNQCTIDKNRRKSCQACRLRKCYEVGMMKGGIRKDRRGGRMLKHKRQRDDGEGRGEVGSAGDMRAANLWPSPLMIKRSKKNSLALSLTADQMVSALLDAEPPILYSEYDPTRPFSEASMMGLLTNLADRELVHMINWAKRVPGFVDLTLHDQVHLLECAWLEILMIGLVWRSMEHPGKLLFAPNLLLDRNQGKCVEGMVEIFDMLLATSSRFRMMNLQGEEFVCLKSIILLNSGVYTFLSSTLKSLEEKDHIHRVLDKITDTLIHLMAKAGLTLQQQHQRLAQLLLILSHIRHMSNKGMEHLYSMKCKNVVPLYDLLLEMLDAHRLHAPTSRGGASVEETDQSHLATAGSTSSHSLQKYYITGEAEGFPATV

[1] = molecular target: Nav1.7 DII S969A and DIV D1761A (Homo sapiens, UniProt Q15858); experiment: Voltage clamp of Nav1.7 with alanine substitutions in DII and DIV; type: cell-based; settings: range over DII S969A and DIV D1761A
Description: While no clear drug-receptor interactions were determined within Siteout, the S6 E220 side chains formed hydrogen bond interactions with the ether and amine moieties of the ND-Tam molecules found at Sitein. […] After structural alignment of the crystalized NavMs-Tam complex with the cryo EM Nav1.7+b1+b2 channel coordinates, the S6 side chain hydroxyl in DII (S969) and the carboxyl side chains in DIII (E1458) and DIV (D1761) observed in the human channel were nearly superimposable with E220 of the prokaryotic Nav subunits. In addition, the distances from the drug ether and amines were within acceptable distances (2.8-3.1 Å) for hydrogen bond formation for all three site chains (FIG. 2B). […]
Plasmids encoding the human version of channels Nav1.1, 1.6, and 1.7 were co-transfected with TRES GFP into HEK cell lines for whole-cell voltage clamp studies (American Type Culture Collection). […] Plasma membrane currents were recorded using borosilicate glass electrodes polished to resistances of […]. Sodium currents conducted by heterologously expressed Navs were recorded using the following solutions (in mM). […] Endogenous DRG sodium currents were recorded using an intracellular solution consisting of 70 CsCl, 70 CsF, 2 EGTA, 5 HEPES, and 5 NaCl; the pH was adjusted to 7.4 with CsOH. […]

[2] = system: mice with knee hyperalgesia post DMM surgery; experiment: In vivo osteoarthritis pain model (DMM), knee hyperalgesia after intra-articular injection; design: species or system mouse

Sequence of Nav1.7 DII S969A and DIV D1761A (Q15858 whole entry S969A, form open): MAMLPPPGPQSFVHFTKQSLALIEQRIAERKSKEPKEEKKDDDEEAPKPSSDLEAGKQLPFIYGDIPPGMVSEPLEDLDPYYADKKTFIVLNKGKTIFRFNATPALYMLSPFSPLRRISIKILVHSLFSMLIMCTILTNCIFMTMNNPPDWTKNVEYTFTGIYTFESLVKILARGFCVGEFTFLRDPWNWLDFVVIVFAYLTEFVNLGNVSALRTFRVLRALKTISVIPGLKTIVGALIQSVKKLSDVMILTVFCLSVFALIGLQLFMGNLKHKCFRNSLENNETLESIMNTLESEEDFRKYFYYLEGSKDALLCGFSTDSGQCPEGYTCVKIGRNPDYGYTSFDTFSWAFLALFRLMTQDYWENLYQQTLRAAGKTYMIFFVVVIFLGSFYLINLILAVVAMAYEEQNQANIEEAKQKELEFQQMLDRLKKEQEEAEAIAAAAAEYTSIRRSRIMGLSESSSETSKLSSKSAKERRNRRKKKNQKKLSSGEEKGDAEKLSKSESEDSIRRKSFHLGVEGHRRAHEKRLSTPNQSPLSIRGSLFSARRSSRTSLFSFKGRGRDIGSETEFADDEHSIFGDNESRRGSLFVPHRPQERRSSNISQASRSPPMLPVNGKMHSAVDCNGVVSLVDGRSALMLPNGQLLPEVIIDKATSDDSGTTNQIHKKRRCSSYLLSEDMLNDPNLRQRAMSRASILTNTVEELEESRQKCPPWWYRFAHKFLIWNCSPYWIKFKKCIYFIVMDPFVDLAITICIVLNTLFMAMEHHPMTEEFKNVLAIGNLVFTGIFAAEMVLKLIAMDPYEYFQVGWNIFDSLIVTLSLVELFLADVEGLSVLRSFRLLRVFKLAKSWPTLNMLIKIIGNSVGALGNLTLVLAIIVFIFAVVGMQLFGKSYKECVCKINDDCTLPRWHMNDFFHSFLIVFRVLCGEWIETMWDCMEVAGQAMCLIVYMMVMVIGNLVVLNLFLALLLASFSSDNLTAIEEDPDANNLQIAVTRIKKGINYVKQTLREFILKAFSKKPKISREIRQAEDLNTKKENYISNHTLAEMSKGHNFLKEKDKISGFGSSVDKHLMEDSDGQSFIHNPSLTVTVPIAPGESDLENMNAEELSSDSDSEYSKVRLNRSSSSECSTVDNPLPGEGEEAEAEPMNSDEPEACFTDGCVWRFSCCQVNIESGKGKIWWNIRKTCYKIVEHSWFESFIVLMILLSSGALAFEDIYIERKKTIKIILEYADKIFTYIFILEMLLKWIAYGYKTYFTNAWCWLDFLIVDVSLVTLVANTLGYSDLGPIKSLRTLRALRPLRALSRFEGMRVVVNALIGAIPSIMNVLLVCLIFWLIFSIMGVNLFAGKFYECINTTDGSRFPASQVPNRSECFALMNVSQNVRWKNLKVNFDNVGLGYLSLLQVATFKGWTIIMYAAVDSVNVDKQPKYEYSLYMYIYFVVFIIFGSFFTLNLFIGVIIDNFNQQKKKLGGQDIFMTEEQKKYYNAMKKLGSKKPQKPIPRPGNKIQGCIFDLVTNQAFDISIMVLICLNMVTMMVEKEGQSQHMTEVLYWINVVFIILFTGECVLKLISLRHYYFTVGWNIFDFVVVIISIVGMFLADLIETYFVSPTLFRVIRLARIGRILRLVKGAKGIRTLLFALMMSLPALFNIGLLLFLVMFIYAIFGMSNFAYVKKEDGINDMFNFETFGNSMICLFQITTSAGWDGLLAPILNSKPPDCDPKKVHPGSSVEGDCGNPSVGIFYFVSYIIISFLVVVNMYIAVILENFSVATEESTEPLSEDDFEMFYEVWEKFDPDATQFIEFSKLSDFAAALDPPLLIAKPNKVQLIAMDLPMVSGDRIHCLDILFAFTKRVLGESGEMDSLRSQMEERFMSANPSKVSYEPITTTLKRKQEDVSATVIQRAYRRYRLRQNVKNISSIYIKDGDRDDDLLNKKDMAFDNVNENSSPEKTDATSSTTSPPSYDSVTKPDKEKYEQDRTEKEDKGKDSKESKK

slope of concentration-dependence [1]: 1.3-1.4
SMILES: CC/C(=C(\c1ccccc1)c1ccc(OCCNC)cc1)c1ccccc1 [ND-Tam, 2-[4-[(Z)-1,2-diphenylbut-1-enyl]phenoxy]-N-methylethanamine]
affinity for the ER, times lower than 4OH-Tam (estrogen receptor (ER)): ~100 times | knee hyperalgesia versus vehicle (in words) ([2]; 50 μM (~0.002 mg/kg) intra-articular, vehicle 50% EtOH, 30 minutes after injection, P=0.008): rapidly inhibited knee hyperalgesia pain compared to injection of vehicle; also recorded: provided relief from hyperalgesia compared to vehicle | area under the curve analysis of withdrawal thresholds (in words) ([2]; 50 μM intra-articular, 0-3 hours after injection): performs similar to CBD and to lidocaine over time | knee hyperalgesia versus vehicle, direct comparison study (in words) ([2]; 50 μM intra-articular, vehicle 0.1% DMSO, 30 minutes after injection): effectively inhibited knee hyperalgesia | knee withdrawal threshold versus vehicle control (in words) ([2]; 50 μM intra-articular, vehicle 0.1% DMSO, through 3 hours after injection): remained elevated compared to vehicle control through 3 hours after injection
